Test results published in patent publication US6114302A, “Fragrance pro-accords” (The Procter & Gamble Company, priority 1999, dated 2000).

Experiment: Fragrance Release Half-life (hydrolysis kinetics of pro-accord monitored by HPLC)
Format: physicochemical
Settings: 90/10 dioxane/phosphate buffered water, buffer pH approximately 2.5, HPLC at 30° C.
Experimental: For the purposes of the present invention the pro-accords generally have a "Fragrance Release Half-life" of less than or equal to 12 hours when measured in NaH2 PO4 buffer at pH 2.5 and greater than or equal to 0.1 hour when measured in NaH2 PO4 buffer at pH 5.3. The "Fragrance Release Half-life" is defined herein as follows.
The rate at which the accord is released is defined by the formula: […]
and can be further expressed by the formula: [formula] wherein k is the release rate constant and [Pro-accord] is the concentration of pro-accord. For the purposes of the present invention the "Fragrance Release Half-life", t1/2, is related to the release rate constant by the formula: [formula] and this relationship is used for the purposes of the present invention to determine the "fragrance Release Half-life" (FRHL).
Due to the hydrophobic nature of some pro-accords, it is necessary to conduct the determination of t1/2 and k in a mixture of 90/10 dioxane/phosphate buffered water. […] Next 10 mL of the phosphate buffer is admixed with 90 mL of dioxane and the pro-fragrance to be analyzed is added. The hydrolysis kinetics are then monitored by conventional HPLC at 30° C. […]
*t1/2 for the purposes of the present invention is measured in […]

## c1ccc(CCOC(OCCc2ccccc2)(OCCc2ccccc2)OCCc2ccccc2)cc1 [tetrakis(phenylethyl) orthocarbonate, Tetrakis(phenylethyl) Orthocarbonate]
  t1/2 (Fragrance Release Half-life): 4.8 h

## c1ccc(CCOC(OCCc2ccccc2)OCCc2ccccc2)cc1 [tris(phenylethyl) orthoformate, Tris(phenylethyl) Orthoformate]
  t1/2 (Fragrance Release Half-life): 5.9 h
